# Results taken from patent publication US20190175554A1, “METHOD FOR TREATING PRURITUS AND/OR ITCH” (Neurim Pharmaceuticals (1991) Ltd., priority 2016, published 2019).
# Values joined by “and” are separate entries in the source; they are usually repeats but may differ in a detail not shown here. Equal values may be shown once. Read-outs that look alike come from different tables or passages of the source.
# Assays:
# [1] = test system: mice, formalin injected into the right hindpaw; experiment: Formalin test, hindpaw licking time in mice; type: in vivo, mouse; details: 100 mg/kg intraperitoneally 30 min before formalin
# Protocol: The anti-pruritus activity of pyrone-indole compounds were assessed using this model.
# Method. The noxious stimulus is an injection of dilute formalin under the skin of the dorsal surface of the right hindpaw. The response is the amount of time the animals spend licking the injected paw 5-10 minutes (early phase), or 20-30 minutes (late phase) after the injection of formalin. Mice (N=8 per group) were injected intraperitoneally with test compound (100 mg/kg), or morphine (4 mg/kg), or vehicle. Thirty minutes later, formalin (20 μl 2.5% in water) was injected by the subplantar route into the right hindpaw. Hindpaw licking time was recorded in consecutive 5 minute-intervals during the first 10 minutes (early phase), and from 15 to 35 minutes (late phase) after formalin injection.
# hNav1.7 = molecular target: T1, hNav1.7 (Homo sapiens, UniProt Q15858); experiment: Block of hNav1.x channels expressed in mammalian cells, voltage protocol; type: cell-based; details: blocking effects on hNav1.x channels, Table 3
# T1 construct: expressed in transfected cells
# Protocol: Effects of N-[2-(1H-indol-3-yl)-ethyl]-comanilamide, N-[2-(5-methoxy-indol-3-yl)-ethyl]-comanilamide and 2-methyl-4-oxo-4H-pyran-3-yl [2-(5-methoxy-1H-indol-3-yl)ethyl]carbamate on Nav1.x Channels Expressed in Mammalian Cells
# Method. A block of hNav1.x channels was measured using the stimulus voltage pattern shown in FIG. 1; voltage potentials are indicated in Table 2, below. The pulse pattern repeated twice: before and 5 minutes after N-[2-(1H-indol-3-yl)-ethyl]-comanilamide, N-[2-(5-methoxy-indol-3-yl)-ethyl]-comanilamide and 2-methyl-4-oxo-4H-pyran-3-yl[2-(5-methoxy-1H-indol-3-yl)ethyl]carbamate addition and peak current amplitudes at […] was measured (ITP1 and ITP2).
# TRPV1 [2] = molecular target: T2, TRPV1 (Homo sapiens, UniProt Q8NER1); experiment: TRPV1 calcium influx assay; type: cell-based; details: for inhibitory effect on TRPV1 mediated calcium influx (in words): 10 μM, significant = three or more SD from agonist mean (37.74% inhibition); for inhibition at 0.1 µM / inhibition at 0.5 µM / inhibition at 1 µM / inhibition at 5 µM / inhibition at 10 µM: read-out: Normalized % inhibition; for inhibition at 0.5 µM: Test conc 0.5 μM; for inhibition at 1 µM: Test conc 1 μM; for inhibition at 5 µM: Test conc 5 μM; for inhibition at 10 µM: Test conc 10 μM
# Protocol: Method. The ability of N-[2-(1H-indol-3-yl)-ethyl]-comanilamide, N-[2-(5-methoxy-indol-3-yl)-ethyl]-comanilamide and 2-methyl-4-oxo-4H-pyran-3-yl [2-(5-methoxy-1H-indol-3-yl)ethyl]carbamate to act as antagonists of TRPV1 was evaluated with a calcium influx assay. The signal elicited in the presence of the positive control agonist (0.1 μM capsaicin) was set to 100% and the signal in the presence of the antagonist (0.1 μM capsaicin+3 μM ruthenium red) was set to 0.
# [3] = test system: young male subjects, UVB-irradiated skin; experiment: UVB sunburn model in humans, cold pain threshold (CPT); type: in vivo, human
# Protocol: (§1) The anti-pruritus effect of N-[2-(1H-indol-3-yl)-ethyl]-comanilamide was tested using the UVB sunburn model (R. Rolke et al. (2006), Quantitative sensory testing in the German Research Network on neuropathic pain (DFNS): standardized protocol and reference values, Pain, 123, 231-243) used as an art-accepted surrogate model of itch (Andersen et al., Acta Derm Venereol. 2015; 95(7):771-7. Human surrogate models of histaminergic and non-histaminergic itch.).
# (§2) Twenty four young male subjects ([…]N-[2-(1H-indol-3-yl)-ethyl]-comanilamide in escalated doses (300 mg-900 mg) and 6 in the placebo group), were exposed to three times the minimal erythema dose (MED) of UVB light on an approximately 4×4 cm area on the upper part of the leg in the morning of Day (−1) pre-dose on Day 1 and 2.5 hours post—dose on the UVB-irradiated area.
# (§3) UVB irradiation causes skin inflammation which is noxious and elicits pronounced inflammation related temperature and mechanical hyperalgesia at the UVB-irradiated site. This hyperalgesia peaks at about 20-24 hours post irradiation after which it slowly subsides. Quantitative sensory testing (QST) assesses characteristic sensory patterns in pain and pruritus models.
# (§4) The UVB irradiated skin was obtained by irradiating the marked area (approximately 4×4 cm) of the skin of the upper part of the right leg by three times the MED as determined during the screening. This was done approximately 20 hours prior to dosing.
# Cold pain thresholds (CPT) were determined. The mean threshold temperature of five consecutive measurements was calculated. All thresholds were obtained with ramped stimuli (1 C/s) that were terminated when the subject pressed a button.
# [4] = test system: young male subjects, UVB-irradiated skin; experiment: UVB sunburn model in humans, mechanical detection threshold (MDT) to von Frey hairs; type: in vivo, human; details: baseline Day (−1) before the sunburn; for MDT feel sensation, Post sunburn - Change from Baseline: pre-dose
# Protocol: as §1, §2, §3, §4
# Mechanical detection threshold (MDT) to von Frey hairs was assessed by using a standardized set of modified von Frey hairs (Optihair; Marstock Nervtest, Marburg, Germany) exerting forces between 0.25 and 512 mN (rounded tip, 0.5 mm in diameter). Thresholds were determined by the method of limits with the geometric mean of a series of 5 ascending and descending stimulus intensities.
# TRPV1 [5] = molecular target: T2, TRPV1; experiment: TRPV1 calcium influx assay; type: cell-based
# [6] = Test conc 0.1 μM, vs 0.1 μM capsaicin
# [7] = read-out: Normalized % inhibition
# T2 sequence (Q8NER1 whole entry, species assumed): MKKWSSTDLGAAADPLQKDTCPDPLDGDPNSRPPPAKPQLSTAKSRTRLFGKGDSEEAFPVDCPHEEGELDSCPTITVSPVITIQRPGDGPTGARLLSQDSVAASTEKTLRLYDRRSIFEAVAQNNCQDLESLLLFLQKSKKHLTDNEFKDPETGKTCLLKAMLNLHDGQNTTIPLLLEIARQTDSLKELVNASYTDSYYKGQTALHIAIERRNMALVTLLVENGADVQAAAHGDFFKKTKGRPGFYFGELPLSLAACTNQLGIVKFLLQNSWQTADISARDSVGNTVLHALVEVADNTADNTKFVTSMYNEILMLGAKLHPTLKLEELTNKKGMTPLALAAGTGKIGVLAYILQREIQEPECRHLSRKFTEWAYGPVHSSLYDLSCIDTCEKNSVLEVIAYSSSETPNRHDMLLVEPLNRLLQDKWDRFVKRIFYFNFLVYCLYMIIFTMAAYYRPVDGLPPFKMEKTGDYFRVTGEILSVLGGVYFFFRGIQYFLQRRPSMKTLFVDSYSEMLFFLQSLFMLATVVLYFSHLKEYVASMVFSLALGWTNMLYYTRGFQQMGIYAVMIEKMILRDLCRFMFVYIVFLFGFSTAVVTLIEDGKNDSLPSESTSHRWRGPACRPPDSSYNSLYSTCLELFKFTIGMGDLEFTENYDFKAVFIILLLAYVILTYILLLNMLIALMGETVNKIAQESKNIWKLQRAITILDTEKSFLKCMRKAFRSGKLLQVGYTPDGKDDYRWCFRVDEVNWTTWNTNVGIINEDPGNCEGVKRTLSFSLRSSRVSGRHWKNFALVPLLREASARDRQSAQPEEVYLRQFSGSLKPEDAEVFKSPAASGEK
# T1 sequence (Q15858 whole entry): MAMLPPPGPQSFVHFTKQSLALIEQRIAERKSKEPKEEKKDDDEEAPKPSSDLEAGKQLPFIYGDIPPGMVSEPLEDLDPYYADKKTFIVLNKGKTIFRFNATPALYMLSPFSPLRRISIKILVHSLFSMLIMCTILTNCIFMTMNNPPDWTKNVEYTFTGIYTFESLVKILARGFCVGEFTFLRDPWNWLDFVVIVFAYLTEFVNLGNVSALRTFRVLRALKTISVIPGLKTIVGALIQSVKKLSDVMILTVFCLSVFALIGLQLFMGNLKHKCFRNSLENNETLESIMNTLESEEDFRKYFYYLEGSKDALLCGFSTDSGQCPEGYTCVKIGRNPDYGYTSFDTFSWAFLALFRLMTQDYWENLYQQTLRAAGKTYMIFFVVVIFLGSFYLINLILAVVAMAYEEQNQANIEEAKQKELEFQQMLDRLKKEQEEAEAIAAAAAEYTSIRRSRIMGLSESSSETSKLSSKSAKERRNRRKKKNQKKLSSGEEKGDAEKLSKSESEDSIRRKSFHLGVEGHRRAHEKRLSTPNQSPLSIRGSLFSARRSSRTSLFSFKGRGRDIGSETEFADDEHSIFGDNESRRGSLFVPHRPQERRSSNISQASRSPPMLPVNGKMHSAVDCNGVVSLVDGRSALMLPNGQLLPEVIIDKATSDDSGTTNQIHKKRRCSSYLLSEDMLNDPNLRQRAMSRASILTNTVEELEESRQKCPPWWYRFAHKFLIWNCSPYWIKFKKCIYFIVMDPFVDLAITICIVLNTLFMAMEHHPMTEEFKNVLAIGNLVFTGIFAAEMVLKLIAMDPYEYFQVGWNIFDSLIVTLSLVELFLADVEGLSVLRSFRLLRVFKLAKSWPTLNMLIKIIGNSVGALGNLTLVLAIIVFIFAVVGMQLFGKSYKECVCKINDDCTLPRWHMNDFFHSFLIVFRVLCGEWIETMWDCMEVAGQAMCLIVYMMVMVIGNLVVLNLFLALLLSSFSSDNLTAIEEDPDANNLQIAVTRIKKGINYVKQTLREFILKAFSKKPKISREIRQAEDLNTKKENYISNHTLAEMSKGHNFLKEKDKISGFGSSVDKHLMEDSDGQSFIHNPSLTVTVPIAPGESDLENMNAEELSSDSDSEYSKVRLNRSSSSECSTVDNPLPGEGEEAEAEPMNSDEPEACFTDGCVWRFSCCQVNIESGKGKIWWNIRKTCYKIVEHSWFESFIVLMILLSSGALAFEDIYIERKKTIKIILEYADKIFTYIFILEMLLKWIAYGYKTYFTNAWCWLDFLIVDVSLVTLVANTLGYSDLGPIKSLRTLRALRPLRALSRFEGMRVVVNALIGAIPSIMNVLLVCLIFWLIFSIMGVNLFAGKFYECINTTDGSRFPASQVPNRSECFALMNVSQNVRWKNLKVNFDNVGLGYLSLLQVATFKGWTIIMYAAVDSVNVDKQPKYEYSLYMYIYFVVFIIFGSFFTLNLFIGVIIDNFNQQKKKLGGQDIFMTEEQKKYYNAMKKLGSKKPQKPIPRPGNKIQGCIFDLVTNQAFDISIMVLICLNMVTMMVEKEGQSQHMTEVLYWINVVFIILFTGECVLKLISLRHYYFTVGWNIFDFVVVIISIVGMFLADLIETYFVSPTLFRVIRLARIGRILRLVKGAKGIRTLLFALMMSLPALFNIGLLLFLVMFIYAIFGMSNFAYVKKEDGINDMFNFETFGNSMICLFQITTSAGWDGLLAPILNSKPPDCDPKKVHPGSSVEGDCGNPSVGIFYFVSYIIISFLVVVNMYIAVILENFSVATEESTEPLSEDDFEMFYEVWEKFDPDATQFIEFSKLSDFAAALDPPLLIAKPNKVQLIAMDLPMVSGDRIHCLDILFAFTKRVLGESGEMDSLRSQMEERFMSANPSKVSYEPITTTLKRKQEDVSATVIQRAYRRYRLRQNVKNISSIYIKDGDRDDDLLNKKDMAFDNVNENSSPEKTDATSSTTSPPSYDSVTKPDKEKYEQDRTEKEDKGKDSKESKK
inhibitory effect on TRPV1 mediated calcium influx (in words) (TRPV1 [2]),inhibition at 0.1 µM (TRPV1 [2]; [6]) [%],inhibition at 0.5 µM (TRPV1 [2]; vs 0.1 μM capsaicin) [%],inhibition at 1 µM (TRPV1 [2]; vs 0.1 μM capsaicin) [%],inhibition at 5 µM (TRPV1 [2]; vs 0.1 μM capsaicin) [%],inhibition at 10 µM (TRPV1 [2]; vs 0.1 μM capsaicin) [%],Normalized % Activation (TRPV1 [5]; Test conc 0.1 μM) [%],Normalized % Activation (TRPV1 [5]; Test conc 0.5 μM) [%],Normalized % Activation (TRPV1 [5]; Test conc 1 μM) [%],Normalized % Activation (TRPV1 [5]; Test conc 5 μM) [%],Normalized % Activation (TRPV1 [5]; Test conc 10 μM) [%],SMILES,other results
significant inhibitory effect,9.88,2.44,31.1,26.1,37.7,23.07,11.93,10.51,8.71,10.13,O=C(NCCc1c[nH]c2ccccc12)c1cc(=O)cco1 [N-[2-(1H-indol-3-yl)-ethyl]-comanilamide],"inhibition of the licking response, early phase ([1]; 100 mg/kg): 57% and 38%; inhibition of the licking response, late phase ([1]; 100 mg/kg): 90% and 62%; selectivity among hNav1.x channels (in words) (hNav1.7): preferential inhibition of Nav1.7 channels; CPT, Post sunburn ([3]; 600 mg group, after UVB, pre-dose): 16.03 °C; CPT, Pre sunburn ([3]; 600 mg group, before UVB and before dosing): 5.55 °C; CPT, 2.5 h Post Drug Administration ([3]; 600 mg, 2.5 h post dose): 12.75 °C; time of peak response post dosing ([3]; human UVB sunburn model, analgesic/anti-pruritus effects): 2.5 h; MDT feel sensation, Post sunburn - Change from Baseline ([4]; 300 mg group): −10.92 mN; MDT feel sensation, 2.5 h post Drug administration - Change from Baseline ([4]; 300 mg): −12.13 mN; MDT feel sensation, Post sunburn - Change from Baseline ([4]; 600 mg group): −3.52 mN; MDT feel sensation, 2.5 h post Drug administration - Change from Baseline ([4]; 600 mg): −0.017 mN; MDT feel sensation, Post sunburn - Change from Baseline ([4]; 900 mg group): −7.24 mN; MDT feel sensation, 2.5 h post Drug administration - Change from Baseline ([4]; 900 mg): 0.84 mN"
significant inhibitory effect,15.2,1.19,36.4,35.4,42.6,18.12,11.95,14.04,12.92,13.67,COc1ccc2[nH]cc(CCNC(=O)c3cc(=O)cco3)c2c1 [N-[2-(5-methoxy-indol-3-yl)-ethyl]-comanilamide],

SMILES,inhibitory effect on TRPV1 mediated calcium influx (in words) (TRPV1 [2]),inhibition at 0.1 µM (TRPV1 [2]; [6]) [%],inhibition at 0.5 µM (TRPV1 [2]; vs 0.1 μM capsaicin) [%],inhibition at 1 µM (TRPV1 [2]; vs 0.1 μM capsaicin) [%],inhibition at 5 µM (TRPV1 [2]; vs 0.1 μM capsaicin) [%],inhibition at 10 µM (TRPV1 [2]; vs 0.1 μM capsaicin) [%],Normalized % Activation (TRPV1 [5]; Test conc 0.1 μM) [%],Normalized % Activation (TRPV1 [5]; Test conc 0.5 μM) [%],Normalized % Activation (TRPV1 [5]; Test conc 1 μM) [%],Normalized % Activation (TRPV1 [5]; Test conc 5 μM) [%],Normalized % Activation (TRPV1 [5]; Test conc 10 μM) [%],other results
COc1ccc2[nH]cc(CCNC(=O)Oc3c(C)occc3=O)c2c1 [2-methyl-4-oxo-4H-pyran-3-yl [2-(5-methoxy-1H-indol-3-yl)ethyl]carbamate],significant inhibitory effect,,,,,,12.65,9.58,12.16,5.75,12.26,"inhibition of the licking response, early phase [1]: 54%; inhibition of the licking response, late phase [1]: 86%; inhibition at 0.1 µM (TRPV1 [2]): -1.78%; inhibition at 0.5 µM (TRPV1 [5]; [7]): 23.6%; inhibition at 1 µM (TRPV1 [5]; [7]): 45.1%; inhibition at 5 µM (TRPV1 [5]; [7]): 44.6%; inhibition at 10 µM (TRPV1 [5]; [7]): 41.5%"
